Assay results taken from patent publication US20230139171A1 (SITA Information Networking Computing UK Limited, priority 2019, published 2023).
pIC50: −log10 of the molar value.

Tests used:
Assay type in all cases: cell-based
human TLR9 = molecular target: T1, human TLR9 (Homo sapiens, UniProt Q9NR96); assay: TLR9 inhibition reporter assay (HEK-Blue cells, SEAP reporter, ODN2006 stimulation); conditions: HEK-Blue cells overexpressing human TLR9, SEAP reporter, ODN2006 5 nM
T1 construct: host or cells: HEK-Blue cells
T1 sequence (Q9NR96 26-1032): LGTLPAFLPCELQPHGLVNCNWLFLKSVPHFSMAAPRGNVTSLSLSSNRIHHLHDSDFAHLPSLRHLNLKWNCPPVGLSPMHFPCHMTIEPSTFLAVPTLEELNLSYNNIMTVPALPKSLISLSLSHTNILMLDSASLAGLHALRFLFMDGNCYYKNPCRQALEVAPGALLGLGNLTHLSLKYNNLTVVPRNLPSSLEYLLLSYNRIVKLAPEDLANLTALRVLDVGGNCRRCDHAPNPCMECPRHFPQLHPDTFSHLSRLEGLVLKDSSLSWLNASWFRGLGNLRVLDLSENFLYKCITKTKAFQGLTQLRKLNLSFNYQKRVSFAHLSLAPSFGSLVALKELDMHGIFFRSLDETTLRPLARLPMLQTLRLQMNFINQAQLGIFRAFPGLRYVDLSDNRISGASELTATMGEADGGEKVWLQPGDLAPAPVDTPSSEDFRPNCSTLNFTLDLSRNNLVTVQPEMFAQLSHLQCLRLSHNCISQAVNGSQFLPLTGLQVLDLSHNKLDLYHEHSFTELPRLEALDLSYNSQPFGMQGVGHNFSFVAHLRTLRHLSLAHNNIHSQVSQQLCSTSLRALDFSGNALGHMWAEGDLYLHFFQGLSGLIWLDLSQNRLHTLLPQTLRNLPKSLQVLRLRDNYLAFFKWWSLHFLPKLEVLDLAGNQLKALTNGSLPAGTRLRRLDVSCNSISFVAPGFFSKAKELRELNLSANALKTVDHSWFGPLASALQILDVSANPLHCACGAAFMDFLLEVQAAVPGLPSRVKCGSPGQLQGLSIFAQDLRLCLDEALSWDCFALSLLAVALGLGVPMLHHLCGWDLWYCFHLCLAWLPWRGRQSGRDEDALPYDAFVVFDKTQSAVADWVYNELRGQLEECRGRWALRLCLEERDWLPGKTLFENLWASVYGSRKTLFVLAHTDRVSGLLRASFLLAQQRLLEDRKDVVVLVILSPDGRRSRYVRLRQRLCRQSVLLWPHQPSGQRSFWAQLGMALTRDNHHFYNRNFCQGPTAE
How it was run: (§1)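 Screening used HEK-Blue cells overexpressing one human TLR (7, 8 or 9) and an IFN-β minimal promoter–NF-κB/AP-1 SEAP construct. Stimulation lasted 22 h at 37 °C with receptor-specific agonist: gardiquimod, R848 or ODN2006 at 7.5 μM, 15.9 μM and 5 nM.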

human TLR7 = molecular target: T2, human TLR7 (Homo sapiens, UniProt Q9NYK1); assay: TLR7 inhibition reporter assay (HEK-Blue cells, SEAP reporter, gardiquimod stimulation); conditions: HEK-Blue cells overexpressing human TLR7, SEAP reporter, gardiquimod 7.5 μM; read-out: TLR7 IC50
T2 construct: host or cells: HEK-Blue cells
T2 sequence (Q9NYK1 27-1049): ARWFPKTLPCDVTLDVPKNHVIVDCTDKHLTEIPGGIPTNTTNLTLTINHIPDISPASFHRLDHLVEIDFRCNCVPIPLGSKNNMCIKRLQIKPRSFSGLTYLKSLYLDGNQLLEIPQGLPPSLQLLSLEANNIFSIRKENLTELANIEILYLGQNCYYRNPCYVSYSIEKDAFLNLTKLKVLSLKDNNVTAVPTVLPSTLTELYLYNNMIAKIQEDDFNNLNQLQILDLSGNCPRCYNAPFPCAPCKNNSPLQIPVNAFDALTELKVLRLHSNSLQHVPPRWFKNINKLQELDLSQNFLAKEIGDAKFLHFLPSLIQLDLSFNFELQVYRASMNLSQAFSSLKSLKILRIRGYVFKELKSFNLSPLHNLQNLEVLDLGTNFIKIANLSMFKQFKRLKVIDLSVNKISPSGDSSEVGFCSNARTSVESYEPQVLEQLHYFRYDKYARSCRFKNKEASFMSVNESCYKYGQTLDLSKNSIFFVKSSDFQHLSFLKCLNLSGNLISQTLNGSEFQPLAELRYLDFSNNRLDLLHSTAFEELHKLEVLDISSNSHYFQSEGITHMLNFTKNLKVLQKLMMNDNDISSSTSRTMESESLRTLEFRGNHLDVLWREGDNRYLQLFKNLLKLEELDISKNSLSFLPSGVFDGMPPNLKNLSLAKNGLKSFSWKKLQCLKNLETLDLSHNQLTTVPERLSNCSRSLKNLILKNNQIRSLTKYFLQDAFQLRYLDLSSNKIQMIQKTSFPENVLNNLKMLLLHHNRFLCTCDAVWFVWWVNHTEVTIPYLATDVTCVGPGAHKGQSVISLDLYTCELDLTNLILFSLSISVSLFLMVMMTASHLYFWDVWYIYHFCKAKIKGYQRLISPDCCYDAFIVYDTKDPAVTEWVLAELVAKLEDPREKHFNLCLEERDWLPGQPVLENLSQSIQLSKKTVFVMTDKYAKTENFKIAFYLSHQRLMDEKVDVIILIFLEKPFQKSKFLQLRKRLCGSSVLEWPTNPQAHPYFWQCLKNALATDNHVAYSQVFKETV
How it was run: as §1

human TLR8 = molecular target: T3, human TLR8 (Homo sapiens, UniProt Q9NR97); assay: TLR8 inhibition reporter assay (HEK-Blue cells, SEAP reporter, R848 stimulation); conditions: HEK-Blue cells overexpressing human TLR8, SEAP reporter, R848 15.9 μM; read-out: TLR8 IC50
T3 construct: host or cells: HEK-Blue cells
T3 sequence (Q9NR97 27-1041): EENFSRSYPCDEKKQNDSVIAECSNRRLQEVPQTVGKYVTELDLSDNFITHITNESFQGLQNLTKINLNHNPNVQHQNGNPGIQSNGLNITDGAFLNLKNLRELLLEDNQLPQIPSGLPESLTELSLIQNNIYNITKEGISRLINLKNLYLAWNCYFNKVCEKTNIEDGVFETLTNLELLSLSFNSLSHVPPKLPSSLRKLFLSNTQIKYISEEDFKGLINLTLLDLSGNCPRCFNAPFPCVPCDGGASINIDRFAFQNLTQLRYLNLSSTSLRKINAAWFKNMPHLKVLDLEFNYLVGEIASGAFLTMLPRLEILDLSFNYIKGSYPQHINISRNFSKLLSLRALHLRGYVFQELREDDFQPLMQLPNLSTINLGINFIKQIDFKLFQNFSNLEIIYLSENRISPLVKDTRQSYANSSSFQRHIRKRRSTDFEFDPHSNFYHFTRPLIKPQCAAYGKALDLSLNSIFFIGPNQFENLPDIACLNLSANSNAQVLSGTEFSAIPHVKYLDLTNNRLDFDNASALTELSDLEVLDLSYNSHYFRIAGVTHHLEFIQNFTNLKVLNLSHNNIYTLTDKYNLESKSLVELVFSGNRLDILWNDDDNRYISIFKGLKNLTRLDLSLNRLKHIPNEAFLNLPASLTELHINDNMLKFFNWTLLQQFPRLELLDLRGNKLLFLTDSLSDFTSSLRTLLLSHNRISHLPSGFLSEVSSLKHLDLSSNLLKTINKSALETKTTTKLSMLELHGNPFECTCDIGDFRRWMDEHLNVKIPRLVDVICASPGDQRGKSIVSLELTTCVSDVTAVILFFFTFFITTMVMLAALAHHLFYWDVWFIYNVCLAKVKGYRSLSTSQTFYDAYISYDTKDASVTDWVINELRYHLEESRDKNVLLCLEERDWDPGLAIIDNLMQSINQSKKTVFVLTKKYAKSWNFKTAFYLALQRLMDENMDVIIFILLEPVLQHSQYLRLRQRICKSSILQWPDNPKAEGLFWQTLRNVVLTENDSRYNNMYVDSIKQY
How it was run: as §1

SMILES | pIC50 (human TLR9) | pIC50 (human TLR7) | pIC50 (human TLR8)
COC(C)(C)CNC1CCC(c2nc3c(C(C)C)c(-c4cn5ncnc5c(C)c4C)[nH]c3s2)CC1 (single isomer, unassigned) [Example 186, 4-(5-(7,8-dimethyl-[1,2,4]triazolo[1,5-a]pyridin-6-yl)-6-isopropyl-4H-pyrrolo[3,2-d]thiazol-2-yl)-N-(2-methoxy-2-methylpropyl)cyclohexan-1-amine] | 5.23 | 8.80 | 9.68
COC(C)(C)CNC1CCC(c2nc3c(C(C)C)c(-c4cn5ncnc5c(C)c4C)[nH]c3s2)CC1 (single isomer, unassigned) [Example 187, 4-(5-(7,8-dimethyl-[1,2,4]triazolo[1,5-a]pyridin-6-yl)-6-isopropyl-4H-pyrrolo[3,2-d]thiazol-2-yl)-N-(2-methoxy-2-methylpropyl)cyclohexan-1-amine] | 5.06 | 7.98 | 8.37
CCN(C)C1CCC(c2nc3c(C(C)C)c(-c4cn5ncnc5c(C)c4C)[nH]c3s2)CC1 (single isomer, unassigned) [Example 190, 4-(5-(7,8-dimethyl-[1,2,4]triazolo[1,5-a]pyridin-6-yl)-6-isopropyl-4H-pyrrolo[3,2-d]thiazol-2-yl)-N-ethyl-N-methylcyclohexan-1-amine] | 5.08 | 9.10 | 9.24
CCN(C)C1CCC(c2nc3c(C(C)C)c(-c4cn5ncnc5c(C)c4C)[nH]c3s2)CC1 (single isomer, unassigned) [Example 191, 4-(5-(7,8-dimethyl-[1,2,4]triazolo[1,5-a]pyridin-6-yl)-6-isopropyl-4H-pyrrolo[3,2-d]thiazol-2-yl)-N-ethyl-N-methylcyclohexan-1-amine] | 5.03 | 8.82 | 8.75
Cc1c(-c2[nH]c3sc(C4CCC(NC(C)C)CC4)nc3c2C(C)C)cn2ncnc2c1C (single isomer, unassigned) [Example 194, 4-(5-(7,8-dimethyl-[1,2,4]triazolo[1,5-a]pyridin-6-yl)-6-isopropyl-4H-pyrrolo[3,2-d]thiazol-2-yl)-N-isopropylcyclohexan-1-amine] | 5.04 | 9.05 | 9.43

Continued, values first:

pIC50 (human TLR9) | pIC50 (human TLR7) | pIC50 (human TLR8) | SMILES
4.94 | 9.00 | 9.08 | Cc1c(-c2[nH]c3sc(C4CCC(NC5COC5)CC4)nc3c2C(C)C)cn2ncnc2c1C (single isomer, unassigned) [Example 184, N-(4-(5-(7,8-dimethyl-[1,2,4]triazolo[1,5-a]pyridin-6-yl)-6-isopropyl-4H-pyrrolo[3,2-d]thiazol-2-yl)cyclohexyl)oxetan-3-amine]
4.64 | 8.13 | 8.47 | Cc1c(-c2[nH]c3sc(C4CCC(NC5COC5)CC4)nc3c2C(C)C)cn2ncnc2c1C (single isomer, unassigned) [Example 185, N-(4-(5-(7,8-dimethyl-[1,2,4]triazolo[1,5-a]pyridin-6-yl)-6-isopropyl-4H-pyrrolo[3,2-d]thiazol-2-yl)cyclohexyl)oxetan-3-amine]
4.97 | 9.15 | 9.24 | COC1CN(C2CCC(c3nc4c(C(C)C)c(-c5cn6ncnc6c(C)c5C)[nH]c4s3)CC2)C1 (single isomer, unassigned) [Example 188, 5-(7,8-dimethyl-[1,2,4]triazolo[1,5-a]pyridin-6-yl)-6-isopropyl-2-(4-(3-methoxyazetidin-1-yl)cyclohexyl)-4H-pyrrolo[3,2-d]thiazole]
5.00 | 8.47 | 8.29 | COC1CN(C2CCC(c3nc4c(C(C)C)c(-c5cn6ncnc6c(C)c5C)[nH]c4s3)CC2)C1 (single isomer, unassigned) [Example 189, 5-(7,8-dimethyl-[1,2,4]triazolo[1,5-a]pyridin-6-yl)-6-isopropyl-2-(4-(3-methoxyazetidin-1-yl)cyclohexyl)-4H-pyrrolo[3,2-d]thiazole]
4.79 | 8.78 | 9.48 | Cc1c(-c2[nH]c3sc(C4CCC(N5CC6(COC6)C5)CC4)nc3c2C(C)C)cn2ncnc2c1C (single isomer, unassigned) [Example 192, 6-(4-(5-(7,8-dimethyl-[1,2,4]triazolo[1,5-a]pyridin-6-yl)-6-isopropyl-4H-pyrrolo[3,2-d]thiazol-2-yl)cyclohexyl)-2-oxa-6-azaspiro[3.3]heptane]
5.12 | 8.71 | 8.35 | Cc1c(-c2[nH]c3sc(C4CCC(N5CC6(COC6)C5)CC4)nc3c2C(C)C)cn2ncnc2c1C (single isomer, unassigned) [Example 193, 6-(4-(5-(7,8-dimethyl-[1,2,4]triazolo[1,5-a]pyridin-6-yl)-6-isopropyl-4H-pyrrolo[3,2-d]thiazol-2-yl)cyclohexyl)-2-oxa-6-azaspiro[3.3]heptane]
